Numbered stars: 1 amine (or outer) side, 2 acyl side, 3 side chain; on linkers, the order of the positions; unused ones are H or OH. Square brackets hold non-standard residues; d marks the D form. Peptide text beside a SMILES is read from it. * marks the point of attachment. X2 = O=C(O)CN(CC(=O)O)c1ccc(-c2c3cc(F)c(=O)cc-3oc3cc(O)c(F)cc23)cc1OCC(=O)*; X1 = O=C([C@H](CO)N(c1ccc([N+](=O)[O-])c2nonc12)[*:1])[*:2]; Acridine9carbonyl = O=C(c1c2ccccc2nc2ccccc12)*; Dansyl = CN(C)c1cccc2c(S(=O)(=O)*)cccc12; Cysteamide = C(CS[*:3])N[*:1]; Sar = CNCC(=O)O
system: protein kinase C; test: Screen of fluorophore-peptide library for fluorescence change in the presence of PKC and ATP; type: biochemical; details: Table 3 library
Protocol: (§1) Fluorescent PKC assay-Fluorescence assays were performed in triplicate at 30° C. and initiated by addition of ATP to a 100 μL cuvette containing a 50 μL solution of PKC and peptide substrate 2. Final conditions: 62.5 mM HEPES pH 7.4, 3 mM MgCl2, 0.3 mM CaCl2, 0.1 mM EGTA, 1 mM DTT, 0.5 μg/mL phosphatidylserine, 0.1 μg/mL diacylglycerol, 1 mM ATP, and 13 nM PKC. After the addition of ATP, the solution was gently mixed and the time-dependent change in fluorescent intensity (excitation: 520 nm, emission: […]) continuously monitored with a Photon Technology QM-1 spectrofluorimeter.
The peptide H2N-Ser-Phe-Arg-Arg-Arg-Arg-Lys-amide (1) (SEQ ID NO:2) was prepared using an Fmoc-based protocol, spatially segregated, and the free N-terminal amine subsequently modified with an array of fluorophore-containing carboxylic acids (I), aromatic aldehydes (II), and electron deficient aryl halides (III). […] This spatially segregated fluorophore-substituted peptide-based library contains a total of 415 distinct chemical entities (Table 3) and was screened for changes in fluorescence intensity in the presence of PKC and ATP under activating conditions. […] The obvious explanation is that phosphorylation of the peptide fails to induce the desired change in photophysical properties of the appended fluorophore. However, it is also possible that introduction of fluorophores, at various sites along the peptide framework, interferes with PKC-catalyzed phosphorylation. The latter possibility is unlikely, particularly for simple N-monosubstituted peptides, since PKC will phosphorylate peptides containing a wide variety of structurally diverse functionality attached at and/or near the phosphorylatable serine moiety.^24 Nevertheless, a few representative members of the library were evaluated in depth (Table 1). […]. One explanation for the poor fluorescence response of these particular peptides to PKC/ATP could be that these peptides serve as poor PKC substrates. This possibility was addressed by obtaining the PKCα-catalyzed Km and Vmax values using the [γ-^32P]ATP radioactive method.^25 As is clear from Table 1, all five peptides are reasonably effective substrates for PKCα.
Table 3. Structures of 415 compounds tested. The % change observed in fluorescence intensity upon phosphorylation of the compound by protein kinase C is shown in the right column. […] The compound labeled as compound 21 in Table 3 is the same as compound 2 in Example I, which is also shown in Scheme 2.

Compound | % change observed in fluorescence intensity upon phosphorylation of the compound by protein kinase C [%]
N=C(N)NC(NC(=O)C(NC(=N)N)NC(=O)C(NC(=N)N)NC(=O)C(NC(=N)N)NC(=O)C(NC(=O)C(O)N=C1N=c2c(c3ccccc3c3ccccc23)=N1)c1ccccc1)C(=O)NC(N)C(N)=O (stereo not shown) [Compound 77] | <10
N=C(N)NC(NC(=O)C(NC(=N)N)NC(=O)C(NC(=N)N)NC(=O)C(NC(=N)N)NC(=O)C(NC(=O)C(O)N1C=C(c2ccccc2)C(=O)C1(O)c1ccccc1C(=O)O)c1ccccc1)C(=O)NC(N)C(N)=O (stereo not shown) [Compound 78] | <10
N=C(N)NC(NC(=O)C(NC(=N)N)NC(=O)C(NC(=N)N)NC(=O)C(NC(=N)N)NC(=O)C(NC(=O)C(O)/N=C/c1cc([N+](=O)[O-])cc([N+](=O)[O-])c1O)c1ccccc1)C(=O)NC(N)C(N)=O (stereo not shown) [Compound 55] | <10
N#CC1=c2cc3ccccc3cc2=CC1C(=N)NC(O)C(=O)NC(C(=O)NC(NC(=N)N)C(=O)NC(NC(=N)N)C(=O)NC(NC(=N)N)C(=O)NC(NC(=N)N)C(=O)NC(N)C(N)=O)c1ccccc1 (stereo not shown) [Compound 86] | <10
N#CC1=c2cc3ccccc3cc2=CC1C(CO)C(=O)NC(O)C(=O)NC(C(=O)NC(NC(=N)N)C(=O)NC(NC(=N)N)C(=O)NC(NC(=N)N)C(=O)NC(NC(=N)N)C(=O)NC(N)C(N)=O)c1ccccc1 (stereo not shown) [Compound 90] | <10
N=C(N)NC(NC(=O)C(NC(=N)N)NC(=O)C(NC(=N)N)NC(=O)C(NC(=N)N)NC(=O)C(NC(=O)C(O)NC(=O)C(CO)C1C=c2cc3ccccc3cc2=C1NN)c1ccccc1)C(=O)NC(N)C(N)=O (stereo not shown) [Compound 88] | <10
N=C(N)NC(NC(=O)C(NC(=N)N)NC(=O)C(NC(=N)N)NC(=O)C(NC(=N)N)NC(=O)C(NC(=O)C(O)NC(=O)C(CO)C1C=c2cc3ccccc3cc2=C1SC(=N)N)c1ccccc1)C(=O)NC(N)C(N)=O (stereo not shown) [Compound 91] | <10
N=C(N)NC(NC(=O)C(NC(=N)N)NC(=O)C(NC(=N)N)NC(=O)C(NC(=N)N)NC(=O)C(NC(=O)Cc1cc(=O)oc2cc(O)ccc12)NC(=O)C(O)Nc1ccc([N+](=O)[O-])c2nonc12)C(N)=O (stereo not shown) [Compound 75] | <10
CN(C)c1cccc2c(S(=O)(=O)NC(=N)NC(O)C(=O)NC(C(=O)NC(NC(=N)N)C(=O)NC(NC(=N)N)C(=O)NC(NC(=N)N)C(=O)NC(NC(=N)N)C(=O)NC(N)C(N)=O)c3ccccc3)cccc12 (stereo not shown) [Compound 85] | <10
N=C(N)NC(NC(=O)C(NC(=N)N)NC(=O)C(NC(=N)N)NC(=O)C(NC(=N)N)NC(=O)C(NC(=O)C(O)Nc1ccc(N)cc1)c1ccccc1)C(=O)NC(N)C(N)=O (stereo not shown) [Compound 76] | <10
CCCCCCCCCC(=O)NCCCCC(CNS(=O)(=O)c1cccc2c(N(C)C)cccc12)NC(O)C(=O)NC(C(=O)NC(NC(=N)N)C(=O)NC(NC(=N)N)C(=O)NC(NC(=N)N)C(=O)NC(NC(=N)N)C(=O)NC(N)C(N)=O)c1ccccc1 (stereo not shown) [Compound 82] | <10
N=C(N)NC(NC(=O)C(NC(=N)N)NC(=O)C(NC(=N)N)NC(=O)C(NC(=N)N)NC(=O)C(NC(=O)C(O)NC(=N)Nc1ccc(NOO)c2nonc12)c1ccccc1)C(=O)NC(N)C(N)=O (stereo not shown) [Compound 87] | <10
N=C(N)NNC1=c2cc3ccccc3cc2=CC1C(CO)C(=O)NC(C(=O)NC(NC(=N)N)C(=O)NC(NC(=N)N)C(=O)NC(NC(=N)N)C(=O)NC(NC(=N)N)C(=O)NC(N)C(N)=O)c1ccccc1 (stereo not shown) [Compound 92] | <10
N=C(N)NC1=c2cc3ccccc3cc2=CC1C(CO)C(=O)NC(O)C(=O)NC(C(=O)NC(NC(=N)N)C(=O)NC(NC(=N)N)C(=O)NC(NC(=N)N)C(=O)NC(NC(=N)N)C(=O)NC(N)C(N)=O)c1ccccc1 (stereo not shown) [Compound 89] | <10
CCCCCC(=O)NCCCCC(CNS(=O)(=O)c1cccc2c(N(C)C)cccc12)NC(O)C(=O)NC(C(=O)NC(NC(=N)N)C(=O)NC(NC(=N)N)C(=O)NC(NC(=N)N)C(=O)NC(NC(=N)N)C(=O)NC(N)C(N)=O)c1ccccc1 (stereo not shown) [Compound 81] | <10
N=C(N)NC(NC(=O)C(NC(=N)N)NC(=O)C(NC(=N)N)NC(=O)C(NC(=N)N)NC(=O)C(NC(=O)c1ccc2c3c4c(ccc13)C=CCC4=CC2)NC(=O)C(O)Nc1ccc([N+](=O)[O-])c2nonc12)C(N)=O (stereo not shown) [Compound 73] | <10
COCCN(CCOC)C1=c2cc3ccccc3cc2=CC1C(CO)C(=O)NC(C(=O)NC(NC(=N)N)C(=O)NC(NC(=N)N)C(=O)NC(NC(=N)N)C(=O)NC(NC(=N)N)C(=O)NC(N)C(N)=O)c1ccccc1 (stereo not shown) [Compound 93] | <10

molecular target: T1, PKCα (Homo sapiens, UniProt P17252); test: Fluorescent PKC assay (spectrofluorimetry); type: biochemical; details: PKCα-catalyzed phosphorylation; spectrofluorimetry
Protocol: as §1

Compound | Fluorescence enhancement upon phosphorylation (% Change) [%]
N=C(N)NCCC[C@H](NC(=O)[C@H](CCCNC(=N)N)NC(=O)[C@H](CCCNC(=N)N)NC(=O)[C@H](CCCNC(=N)N)NC(=O)[C@H](Cc1ccccc1)NC(=O)[C@H](CO)NC(=O)c1c2ccccc2nc2ccccc12)C(=O)N[C@@H](CCCCN)C(N)=O (Acridine9carbonyl-SFRRRRK-NH2) | 20
CN(C)c1cccc2c(S(=O)(=O)N[C@@H](CO)C(=O)N[C@@H](Cc3ccccc3)C(=O)N[C@@H](CCCNC(=N)N)C(=O)N[C@@H](CCCNC(=N)N)C(=O)N[C@@H](CCCNC(=N)N)C(=O)N[C@@H](CCCNC(=N)N)C(=O)N[C@@H](CCCCN)C(N)=O)cccc12 (Dansyl-SFRRRRK-NH2) | 20
N=C(N)NCCC[C@H](NC(=O)[C@H](CCCNC(=N)N)NC(=O)[C@H](CCCNC(=N)N)NC(=O)[C@H](CCCNC(=N)N)NC(=O)[C@H](Cc1ccccc1)NC(=O)[C@H](CO)Nc1ccc([N+](=O)[O-])c2nonc12)C(=O)N[C@@H](CCCCN)C(N)=O (H-[X1]FRRRRK-NH2) | 150

molecular target: T1, PKCα; test: Protein kinase C assay (Example II); type: biochemical; details: PKC-catalyzed phosphorylation
Protocol: Protein kinase C assay. The kinase-catalyzed reaction was performed in triplicate at 30° C. and initiated by addition of ATP to a solution of PKCα and fluorophore-appended peptide substrate 23 (except in the case of the library, where the assays were performed in a 96 well plate using a fluorescence plate reader). Final conditions: 62.5 mM HEPES, 3 mM MgCl2, 0.3 mM CaCl2, 0.1 mM EGTA, 1 mM DTT, 0.5 μg/mL phosphatidylserine, 0.1 μg/mL diacylglycerol, 1 mM ATP, and 13 nM PKCα (pH 7.4). After the addition of ATP, the solution was gently mixed and the time-dependent change in fluorescent intensity (λexcitation=[…]; λemission=521 nm) continuously monitored with a Photon Technology QM-1 spectrofluorimeter.

Compound | Km [µM] | Vmax [µmol/min/mg]
L-proline | 63 | 1.9
D-proline | 23.5 | 1.0

same assay, conditions: upon PKC-catalyzed phosphorylation

Compound | % Change Fluorescence [%]
CNCC(=O)O [N-methyl glycine] | 264
L-proline | 150
D-proline | 156
CN(CC(=O)N[C@@H](CO)C(=O)N[C@@H](Cc1ccccc1)C(=O)N[C@@H](CCCNC(=N)N)C(=O)N[C@@H](CCCNC(=N)N)C(=O)N[C@@H](CCCNC(=N)N)C(=O)N[C@@H](CCCNC(=N)N)C(=O)NCCS)C(=O)COc1cc(-c2c3cc(F)c(=O)cc-3oc3cc(O)c(F)cc23)ccc1N(CC(=O)O)CC(=O)O [N-Me glycine] (X2-[Sar]SFRRRR-Cysteamide) | 264
